Experimental data from patent US9133262B2, “Somatostatin antagonists” (Ipsen Pharma S.A.S., priority 1996, dated 2015).
Positions of bridges follow the written chain, without caps; N, C: chain ends. Non-standard residues stand in square brackets, D forms with d. Residues, ends and D or L forms follow the SMILES beside them. Phe(F5) = N[C@@H](Cc1c(F)c(F)c(F)c(F)c1F)C(=O)O; dDip = N[C@@H](C(=O)O)C(c1ccccc1)c1ccccc1; Phe(4-Br) = N[C@@H](Cc1ccc(Br)cc1)C(=O)O; Phe(4-Cl) = N[C@@H](Cc1ccc(Cl)cc1)C(=O)O; dPhe(4-Cl) = N[C@H](Cc1ccc(Cl)cc1)C(=O)O; Dip = N[C@H](C(=O)O)C(c1ccccc1)c1ccccc1; Phe(3-F) = N[C@@H](Cc1cccc(F)c1)C(=O)O; Phe(4-F) = N[C@@H](Cc1ccc(F)cc1)C(=O)O; 2Nal = N[C@@H](Cc1ccc2ccccc2c1)C(=O)O; d2Nal = N[C@H](Cc1ccc2ccccc2c1)C(=O)O; Phe(2-F) = N[C@@H](Cc1ccccc1F)C(=O)O; Bta = N[C@@H](Cc1csc2ccccc12)C(=O)O; 2Pal = N[C@@H](Cc1ccccn1)C(=O)O; 3Pal = N[C@@H](Cc1cccnc1)C(=O)O; Tle = CC(C)(C)[C@H](N)C(=O)O

Each compound was assayed on rat pituitary cells. Settings: 3 h.
Assay type: cell-based
Source text: Bioassay on the In Vitro Release of Growth Hormone
(a) Rat Pituitary Cell Dispersion
Pituitaries from adult Charles River CD male rats (Wilmington, Mass.) housed under controlled conditions were dispersed and cultured using aseptic technique by modification of previously described methods (Hoefer, M. T., et al., Mol. Cell. Endocrinol. 35:229 (1984); Ben-Jonathan, N., et al., Methods Enzymol. 103:249 (1983); and Heiman, M. L., et al., Endocrinology 116:410 (1985)). Pituitaries were removed from sacrificed rats, sectioned, and then placed into a siliconized, liquid scintillation vial containing 2 ml 0.2% trypsin (Worthington Biochemicals, Freehold, N.J.) in sterile-filtered Krebs-Ringer bicarbonate buffer supplemented with 1% bovine serum albumin, 14 mM glucose, modified Eagle medium (MEM) vitamin solution, and MEM amino acids (Gibco Laboratories, Grand Island, N.Y.) (KRBGA). All glassware was siliconized as described by Sayers, et al., Endocrinology 88:1063 (1971). The fragments were incubated in a water bath for 35 min at 37° C. with agitation. The vial contents then were poured into a scintillation vial containing 2 ml 0.1% DNase (Sigma Chemical Co., St. Louis, Mo.) in KRBGA and incubated for 2 min at 37° C. with agitation. After incubation, the tissue was decanted into a 15 ml centrifuge tube and allowed to settle. Medium was discarded, and pituitary sections were washed 3 times with 1 ml fresh-KRBGA. The cells were then dispersed in 2 ml 0.05% LBI (lima bean trypsin inhibitor, Worthington Biochemicals) by gently drawing the fragments into and expelling them out of a siliconized, fire polished Pasteur pipette. Dispersed cells were then filtered through a 630 μm diameter Nylon mesh (Tetko, Elmsford, N.Y.) into a fresh 15 ml centrifuge tube. An additional 2 ml of 0.05% LBI solution was used to rinse the first tube and was transferred to the second tube with filtering.
The dispersed cells were then further diluted with approximately 15 ml sterile-filtered Dulbecco's modified Eagle medium (GIBCO), which was supplemented with 2.5% fetal calf serum (GIBCO), 3% horse serum (GIBCO), 10% fresh rat serum (stored on ice for no longer than 1 hr) from the pituitary donors, 1% MEM non-essential amino acids (GIBCO), and gentamycin (10 ng/ml; Sigma) and nystatin (10,000 U/ml; GIBCO). The cells were poured into a 50 ml round-bottomed glass extraction flask with a large diameter opening and then randomly plated at a density of approximately 200,000 cells per well (Co-star cluster 24; Rochester Scientific Co., Rochester, N.Y.). The plated cells were maintained in the above Dulbecco's medium in a humidified atmosphere of 95% air and 5% CO2 at 37° C. for 4-5 days.
(c) Experimental Incubation and IC50 Determination
In preparation for a hormone challenge, the cells were washed 3 times with medium 199 (GIBCO) to remove old medium and floating cells. Each treatment well contained a total volume of 1 ml medium 199 containing 1% BSA (fraction V; Sigma) with treatments as described below. Each antagonist candidate was tested using a single 24-well cell culture plate. Each treatment was performed in triplicate. Each plate contained 8 treatment groups: one 1 nM growth hormone releasing factor (GRF) (1-29)NH2-stimulated control group; one 1 nM somatostatin-inhibited control group in the presence of 1 nM GRF(1-29)NH2; and 6 doses of a given antagonist in the presence of both 1 nM SRIF and 1 nM GRF per plate. After 3 hrs at 37° C. in a air/carbon dioxide atmosphere (95/5%), the medium was removed and stored at −20° C. until radioimmunoassayed for growth hormone content. IC50's of each antagonist versus 1 nM SRIF were calculated using a computer program (SigmaPlot, Jandel Scientific, San Rafael, Calif.) with the maximum response constrained to the value of the 1 nM GRF(1-29)NH2-stimulated control.

In order of rising IC50:
1. CC(C)[C@@H]1NC(=O)[C@H](CCCCN)NC(=O)[C@@H](Cc2c[nH]c3ccccc23)NC(=O)[C@H](Cc2cccnc2)NC(=O)[C@H](NC(=O)[C@@H](N)Cc2ccc(Br)cc2)CSSC[C@@H](C(=O)N[C@@H](Cc2ccc(Br)cc2)C(N)=O)NC1=O [Analog No. 52, H2-Bpa-D-Cys-Pal-D-Trp-Lys-Val-Cys-Bpa-NH2] (H-[Phe(4-Br)][dC][3Pal][dW]KVC[Phe(4-Br)]-NH2; disulfide 2-7)  2.6 nM
2. CC(C)(C)[C@@H]1NC(=O)[C@H](CCCCN)NC(=O)[C@@H](Cc2c[nH]c3ccccc23)NC(=O)[C@H](Cc2cccnc2)NC(=O)[C@H](NC(=O)[C@@H](N)Cc2ccc3ccccc3c2)CSSC[C@@H](C(=O)N[C@@H](Cc2ccc3ccccc3c2)C(N)=O)NC1=O [Analog No. 29, H2-β-Nal-D-Cys-Pal-D-Trp-Lys-Tle-Cys-β-Nal-NH2] (H-[2Nal][dC][3Pal][dW]K[Tle]C[2Nal]-NH2; disulfide 2-7)  8.4 nM
3. CC(C)C[C@@H]1NC(=O)[C@H](CCCCN)NC(=O)[C@@H](Cc2c[nH]c3ccccc23)NC(=O)[C@H](Cc2cccnc2)NC(=O)[C@H](NC(=O)[C@@H](N)Cc2ccc3ccccc3c2)CSSC[C@@H](C(=O)N[C@@H](Cc2ccc3ccccc3c2)C(N)=O)NC1=O [Analog No. 35, H2-β-Nal-D-Cys-Pal-D-Trp-Lys-Leu-Cys-β-Nal-NH2] (H-[2Nal][dC][3Pal][dW]KLC[2Nal]-NH2; disulfide 2-7)  52 nM
4. CC(C)[C@@H]1NC(=O)[C@H](CCCCN)NC(=O)[C@@H](Cc2c[nH]c3ccccc23)NC(=O)[C@H](Cc2cccnc2)NC(=O)[C@H](NC(=O)[C@@H](N)Cc2ccc(F)cc2)CSSC[C@@H](C(=O)N[C@@H](Cc2ccc(F)cc2)C(N)=O)NC1=O [Analog No. 12, H2-p-F-Phe-D-Cys-Pal-D-Trp-Lys-Val-Cys-p-F-Phe-NH2] (H-[Phe(4-F)][dC][3Pal][dW]KVC[Phe(4-F)]-NH2; disulfide 2-7)  56 nM
5. CC(C)[C@@H]1NC(=O)[C@H](CCCCN)NC(=O)[C@@H](Cc2c[nH]c3ccccc23)NC(=O)[C@H](Cc2c[nH]cn2)NC(=O)[C@H](NC(=O)[C@@H](N)Cc2ccc3ccccc3c2)CSSC[C@@H](C(=O)N[C@@H](Cc2ccc3ccccc3c2)C(N)=O)NC1=O [Analog No. 22, H2-β-Nal-D-Cys-His-D-Trp-Lys-Val-Cys-β-Nal-NH2] (H-[2Nal][dC]H[dW]KVC[2Nal]-NH2; disulfide 2-7)  66 nM
6. CC(C)(C)[C@@H]1NC(=O)[C@H](CCCCN)NC(=O)[C@@H](Cc2c[nH]c3ccccc23)NC(=O)[C@H](Cc2cccnc2)NC(=O)[C@H](NC(=O)[C@H](N)Cc2ccc(Cl)cc2)CSSC[C@@H](C(=O)N[C@@H](Cc2ccc(Cl)cc2)C(N)=O)NC1=O [Analog No. 7, H2-D-p-Cl-Phe-D-Cys-Pal-D-Trp-Lys-Tle-Cys-p-Cl-Phe-NH2] (H-[dPhe(4-Cl)][dC][3Pal][dW]K[Tle]C[Phe(4-Cl)]-NH2; disulfide 2-7)  71 nM
7. CC(C)[C@@H]1NC(=O)[C@H](CCCCN)NC(=O)[C@@H](Cc2c[nH]c3ccccc23)NC(=O)[C@H](Cc2c[nH]cn2)NC(=O)[C@H](NC(=O)[C@@H](N)Cc2cccc(F)c2)CSSC[C@@H](C(=O)N[C@@H](Cc2cccc(F)c2)C(N)=O)NC1=O [Analog No. 40, H2-m-F-Phe-D-Cys-His-D-Trp-Lys-Val-Cys-m-F-Phe-NH2] (H-[Phe(3-F)][dC]H[dW]KVC[Phe(3-F)]-NH2; disulfide 2-7)  110 nM
8. CC(C)[C@@H]1NC(=O)[C@H](CCCCN)NC(=O)[C@@H](Cc2c[nH]c3ccccc23)NC(=O)[C@H](Cc2c[nH]cn2)NC(=O)[C@H](NC(=O)[C@@H](N)C(c2ccccc2)c2ccccc2)CSSC[C@@H](C(=O)N[C@@H](Cc2ccc3ccccc3c2)C(N)=O)NC1=O [Analog No. 20, H2-Dip-D-Cys-His-D-Trp-Lys-Val-Cys-β-Nal-NH2] (H-[Dip][dC]H[dW]KVC[2Nal]-NH2; disulfide 2-7)  120 nM
9. CC(C)[C@@H]1NC(=O)[C@H](CCCCN)NC(=O)[C@@H](Cc2c[nH]c3ccccc23)NC(=O)[C@H](Cc2cccnc2)NC(=O)[C@H](NC(=O)[C@@H](N)Cc2ccc3ccccc3c2)CSSC[C@@H](C(=O)N[C@@H](C(N)=O)C(c2ccccc2)c2ccccc2)NC1=O [Analog No. 45, H2-β-Nal-D-Cys-Pal-D-Trp-Lys-Val-Cys-D-Dip-NH2] (H-[2Nal][dC][3Pal][dW]KVC[dDip]-NH2; disulfide 2-7)  130 nM
10. CC(C)[C@@H]1NC(=O)[C@H](CCCCN)NC(=O)[C@@H](Cc2c[nH]c3ccccc23)NC(=O)[C@H](Cc2cccnc2)NC(=O)[C@H](NC(=O)[C@@H](N)Cc2ccccc2F)CSSC[C@@H](C(=O)N[C@@H](Cc2ccccc2F)C(N)=O)NC1=O [Analog No. 15, H2-o-F-Phe-D-Cys-Pal-D-Trp-Lys-Val-Cys-o-F-Phe-NH2] (H-[Phe(2-F)][dC][3Pal][dW]KVC[Phe(2-F)]-NH2; disulfide 2-7)  140 nM
11. CC(C)[C@@H]1NC(=O)[C@H](CCCCN)NC(=O)[C@@H](Cc2c[nH]c3ccccc23)NC(=O)[C@H](Cc2csc3ccccc23)NC(=O)[C@H](NC(=O)[C@@H](N)Cc2ccc3ccccc3c2)CSSC[C@@H](C(=O)N[C@@H](Cc2ccc3ccccc3c2)C(N)=O)NC1=O [Analog No. 49, H2-β-Nal-D-Cys-Bta-D-Trp-Lys-Val-Cys-β-Nal-NH2] (H-[2Nal][dC][Bta][dW]KVC[2Nal]-NH2; disulfide 2-7)  230 nM
12. CC(C)[C@@H]1NC(=O)[C@H](CCCCN)NC(=O)[C@@H](Cc2c[nH]c3ccccc23)NC(=O)[C@H](Cc2ccccn2)NC(=O)[C@H](NC(=O)[C@@H](N)Cc2c(F)c(F)c(F)c(F)c2F)CSSC[C@@H](C(=O)N[C@@H](Cc2c(F)c(F)c(F)c(F)c2F)C(N)=O)NC1=O [Analog No. 17, H2—F5-Phe-D-Cys-2-Pal-D-Trp-Lys-Val-Cys-F5-Phe-NH2] (H-[Phe(F5)][dC][2Pal][dW]KVC[Phe(F5)]-NH2; disulfide 2-7)  1000 nM
13. NCCCC[C@@H]1NC(=O)[C@@H](Cc2c[nH]c3ccccc23)NC(=O)[C@H](Cc2cccnc2)NC(=O)[C@H](NC(=O)[C@@H](N)Cc2ccc3ccccc3c2)CSSC[C@@H](C(=O)N[C@@H](Cc2ccc3ccccc3c2)C(N)=O)NC(=O)CNC1=O [Analog No. 33, H2-β-Nal-D-Cys-Pal-D-Trp-Lys-Gly-Cys-β-Nal-NH2] (H-[2Nal][dC][3Pal][dW]KGC[2Nal]-NH2; disulfide 2-7)  1500 nM

Same assay, conditions: cultured rat pituitary cells; 1 nM SRIF and 1 nM GRF(1-29)NH2; 3 hrs at 37° C.; growth hormone by radioimmunoassay; read-out: IC50 of antagonist versus 1 nM SRIF (growth hormone release)

In order of falling IC50:
1. CC(C)[C@@H]1NC(=O)[C@H](CCCCN)NC(=O)[C@@H](Cc2c[nH]c3ccccc23)NC(=O)[C@H](Cc2ccc(O)cc2)NC(=O)[C@H](NC(=O)[C@H](N)Cc2ccc3ccccc3c2)CSSC[C@@H](C(=O)N[C@H](Cc2ccc3ccccc3c2)C(N)=O)NC1=O [Analog No. 26, H2-D-β-Nal-D-Cys-Tyr-D-Trp-Lys-Val-Cys-D-β-Nal-NH2] (H-[d2Nal][dC]Y[dW]KVC[d2Nal]-NH2; disulfide 2-7)  380 nM
2. CC(C)[C@@H]1NC(=O)[C@H](CCCCN)NC(=O)[C@@H](Cc2c[nH]c3ccccc23)NC(=O)[C@H](Cc2ccc(O)cc2)NC(=O)[C@H](NC(=O)[C@@H](N)Cc2ccc3ccccc3c2)CSSC[C@@H](C(=O)N[C@H](Cc2ccc3ccccc3c2)C(N)=O)NC1=O [Analog No. 25, H2-β-Nal-D-Cys-Tyr-D-Trp-Lys-Val-Cys-D-β-Nal-NH2] (H-[2Nal][dC]Y[dW]KVC[d2Nal]-NH2; disulfide 2-7)  280 nM
